# Like-named read-outs stand apart in the source and are kept apart here.
# Key:
# [1] = system: MEF2c mRNA expression; assay: day 10 qPCR of MEF2c in differentiating hiPSCs; type: cell-based, human
# Description: (§1) One of the main critiques of traditional developmental toxicity evaluations is the length of time and technical training required to successfully complete assays. As such, a shorter, quantifiable, and correct in vitro embryotoxicity assessment could improve throughput without sacrificing accuracy. Given the correct predictions achieved with contraction counts described above, we next investigated if our approach could be modified with a shorter, qPCR-based endpoint to determine differentiation inhibition. Here, we selected two cardiogenesis-specific transcription factors, TBX5 and MEF2c, to determine if the adverse differentiation outcomes would already be detectable as changes in TBX5 and MEF2c expression on day 10 of differentiation.
# (§2) RNA was extracted from three wells per biological replicate using the protocol from NucleoSpin RNA II kit (Macherey-Nagel, Mountain View, CA, USA) and pooled. RNA from three independent differentiations was then quantified using a NanoDrop® 1000 spectrophotometer (ThermoFisher Scientific, Grand Island, NY, USA) at 260 nm. 25 ng of total RNA was used as a template for cDNA synthesis with a mastermix including 5 µL 5× reaction buffer, 1.25 µL 10 mM dNTPs, 1.25 µL 400 U/µL RNase inhibitor, 0.1 µL 200 U/µL reverse transcriptase, 0.1 µL 3 µg/µL random primer, and 1.5 µL DEPC H2O for a total of 25 µL per reaction. 25 ng cDNA transcripts were used for quantitative polymerase chain reaction (qPCR) SYBR green technology on the MyiQ cycler (Bio-Rad). The reactions were setup for 10 min of denaturing at 94 °C (initial), followed by 40 cycles of denaturing at 94 °C, and annealing at 60 °C each 45 s. The n-fold expression in target samples was calculated with the ΔΔCT method by standardizing Ct values to GAPDH expression. Primer sequences for human GAPDH were 5′-[…]-3′ and 5′-[…]-3′. Target genes were cardiogenic markers TBX5 and MEF2c. Primer sequences for human TBX5 were 5′-[…]-3′ and 5′-[…]-3′ and primer sequences for human MEF2c were 5′-[…]-3′ and 5′-[…]-3′ [27].
# (§3) Half-maximal inhibitory compound doses of differentiation (ID50) and cytotoxicity (IC50) were determined from concentration-response curves using GraphPad Prism.
# [2] = system: mESCs; set-up: method as in PMID 14761682; conditions: mESC-EST, cell viability; previously obtained in the authors' lab; cited from earlier work
# [3] = system: 3T3 fibroblast cells; set-up: method as in PMID 14761682; conditions: mESC-EST, 3T3 viability; previously obtained in the authors' lab; cited from earlier work
# [4] = system: TBX5 mRNA expression; assay: day 10 qPCR of TBX5 in differentiating hiPSCs; type: cell-based, human; conditions: for hiPSCs (d10 TBX5) ID50: day 10, 50% reduction in TBX5 gene expression vs control
# Description: as §1, §2, §3
# [5] = system: mESCs; set-up: method as in PMID 14761682; conditions: mESC-EST, inhibition of differentiation; previously obtained in the authors' lab; cited from earlier work
# [6] = system: human foreskin fibroblasts (hFF); assay: hFF viability screen (MTT); type: cell-based; conditions: for IC50: Homo sapiens, Fibroblast; for concentrations with reductions in hFF cell viability: Figure 4B
# Protocol: Human foreskin fibroblasts (hFF) were gifted from Dr. Derrick Rancourt (University of Calgary). hFFs were seeded onto 0.1% gelatin-coated tissue culture plates and maintained in Dulbecco’s modification of Eagle’s medium (DMEM with 4.5 g/L glucose, L-glutamine and sodium pyruvate; Corning cellgro) supplemented with 10% FBS (Atlanta Biologicals, Flower Branch, GA, USA) and 0.5% penicillin/streptomycin (10,000 units/10,000 units, Gibco).
# 5-flurorouracil (5-FU), all-trans retinoic acid (atRA), and penicillin G (PenG) were selected from a subset of chemicals used in the original EST validation study. 5-FU and atRA were selected as positive test compounds due to their established embryotoxic potential while PenG was used as a negative control. All chemicals were purchased from Sigma. Stock solutions were prepared in DMSO and filtered through a 0.2 micron Acrodisc® PSF Syringe Filter (Pall Corporation, Port Washington, NY, USA), aliquoted into sterile microcentrifuge tubes and stored at −20 °C until use. Test chemicals were serially diluted to final concentrations in differentiation media. Cardiogenic cultures were treated with designated chemicals (or solvent only) through day 25 of differentiation and hFF cultures were treated with each compound for a 25 day duration period. Compounds were replenished with each medium change.
# Cardiomyocyte survival following concurrent exposure to each compound was evaluated by 3-[4,5-dimethylthiazol-2-yl]-2,5-diphenylterazolium bromide (MTT) assay from three independent differentiations each carried out in technical quintuplicate as previously described. On day 25 of differentiation, cells were incubated with MTT (5 mg/mL) for 2 h at 37 °C. MTT supernatant was removed and replaced with a desorb solution of 0.7% SDS in 2-propanol. The absorbance of the solution was measured at 570 nm in an iMark™ microplate reader (Bio-Rad) with 655 nm as a reference wavelength. Here, mitochondrial dehydrogenase activity on the MTT in solution is directly proportional to a blue-purple product that is detected at 570 nm.
# as §3
# [7] = 600 h, MTT, 25 day treatment, read-out: hFF IC50
# [8] = fibroblast row of the hiPSC-EST in Table 1 (values equal hFF IC50 of Table 2), read-out: hiPSC 3T3 IC50
Structure (SMILES),doses with steady decline in MEF2c mRNA expression ([1]; day 10),effect on MEF2c mRNA expression ([1]; day 10),MEF2c mRNA ID50 ([1]; day 10 of differentiation) [µg/mL],mESCs IC50 [2] [ng/mL],mESCs 3T3 IC50 [3] [µg/mL],concentrations with significant upregulation in TBX5 mRNA expression ([4]; day 10),hiPSCs (d10 TBX5) ID50 [4] [µg/mL],mESCs ID50 [5] [µg/mL],effect on hFF cell viability [6],"IC50 [6, 7] [µg/mL]","IC50 [6, 8] [µg/mL]","hFF IC50 ([6]; MTT, 25 day treatment) [µg/mL]",concentrations with reductions in hFF cell viability ([6]; MTT) [ng/mL],concentration with significant cell death in hFF ([6]; highest tested concentration) [ng/mL],concentrations with dramatically reduced d10 TBX5 mRNA expression ([4]; day 10),effect on TBX5 mRNA expression ([4]; day 10)
"CC1=C(/C=C/C(C)=C/C=C/C(C)=C/C(=O)O)C(C)(C)CCC1 [All-Trans Retinoic Acid, all-trans retinoic acid]",above 1 × 10^−3 μg/mL,dose-dependently downregulated,0.04,0.09,2.7,lower than 1 × 10^−6 μg/mL,3.28e-06,0.0017,dose-dependent reduction in cell viability,0.0125,0.0125,0.0125,> 10,1000,,
"O=c1[nH]cc(F)c(=O)[nH]1 [5-Fluorouracil, 5-fluorouracil]",,No reductions in MEF2c mRNA expression,,22,0.05,,0.000179,0.0097,dose-dependent reduction in cell viability,0.000808,0.00081,,> 0.1,,above 1 × 10^−4 μg/mL,
"CC1(C)S[C@@H]2[C@H](NC(=O)Cc3ccccc3)C(=O)N2[C@H]1C(=O)O [Penicillin G, penicillin G]",,remained largely unchanged,,800000,1000,,>1000,750,,~1430,1430,,≥ 800000,,,did not significantly impact TBX5 mRNA expression
